Here are results for 19 compounds from US6864249B2, “Piperidine and azetidine thrombin inhibitors” (LG Life Sciences, Ltd., priority 1998, dated 2005).

Data set [1] in a line: Pharmacokinetic study for oral bioavailability in rats. The class given is in vivo, Male Sprague-Dawley rats. As to conditions: oral dosing in rats, 30 mg/kg. The method, then: Pharmacokinetic Studies for Determining Oral Bioavailability
Male Sprague-Dawley rats (250-300 g) were restrained individually in a surgical plate (Dae Jong Instrument Company, Seoul, Korea) as supine position. The femoral artery and the femoral vein (iv only) of rats were cannulated with polyethylene tubing (PE-50, Clay Adams, Parsippany, N.J., USA) under light ether anesthesia. After complete recovery from anesthesia, rats were given 30 mg/kg of test compound dissolved in distilled water via oral gavage or given 10 mg/kg via the femoral vein for intravenous (iv) study. Blood samples (0.25 mL) were collected from the femoral artery at 0 (for control), 1 (iv only), 5, 15, 30, 60, 90 (iv only), 120, 180, and 240 min after dosing.
Blood samples were taken into heparinized tube (25 U/mL), deproteinized with 2 volumes of methanol, and centrifuged. The resulting supernatant (60 μL) was analyzed by HPLC eluting with a mixture of 0.1% trifluoroacetic acid aqueous solution and acetonitrile with a ratio of 81% to 19%. Plasma concentration of test compound was recorded and used to calculate the pharmacokinetic parameters: maximum plasma concentration of test compound (Cmax), time of maximum plasma concentration (Tmax) area under the curve (AUC), and fraction of test compound absorbed (F).
Table 2 illustrates the pharmacokinetic results for some exemplary compounds of invention obtained upon oral dosing in rats.

In data set [2] the test system is thrombus formation. Description: Rat venous thrombosis model (thromboplastin infusion and vena cava stasis, clot weight). The data set is classed as in vivo, Male Sprague-Dawley rats. As to conditions: 1 mg/kg iv bolus 5 min before thromboplastin infusion. On the procedure:
In vivo Studies of the Compounds Claimed Herein Were Conducted Using the Following Procedure
Male Sprague-Dawley rats (body weights 250-300 g, 3-4/group) were anaesthetized by intraperitoneal injection with urethane solution (1.25 g/kg). […] The venae iliolumbar and spermatica were ligated with a silk thread. Thrombus formation was initiated by infusion of a thromboplastin preparation (Simplastin®) using an infusion pump (Model 100, IITC Life Science, USA) via the left femoral vein at 0.5 mL/kg/min. Simplastin® (Organon Teknika, USA) was reconstituted with 4 mL of distilled water and then given diluted at 1:2.5 in distilled water. At the start of infusion for 30 seconds, the vena cava was ligatured below the left renal vein. After the end of infusion, vena cava was also ligatured above the iliac veins 16 mm apart from upper ligature. After 15 min of stasis, the thrombus formed inside the vessel was carefully removed and weighed. Before wighing, the excess blood was removed by blotting the wet clot on the wet Whatman filter paper (see, Millet, J.; Theveniaux, J.; Brown, N. L. Thromb. Haemost. 1992, 67, 176).
Saline (control) or test compounds (1 mg/kg) were injected as a bolus via the femoral vein starting 5 min before the thromboplastin infusion. Bolus injection volume was 0.5 mL/kg. Antithrombotic activity was expressed as a percentage where: Antithrombotic activity (%)=100×(A−B)/A • A=mean clot weight of control group • B=mean clot weight of test compound group

Data set [3] has as its target T1, Thrombin prepared from human plasma (Homo sapiens, UniProt P00734).
T1 construct: Thrombin used in this test was prepared from human plasma; from tissue; host or cells: human plasma
Nature of the data set: In vitro enzyme assay for thrombin inhibition constants (Chromozym TH substrate, Dixon plot). The data set is classed as biochemical. To be noted: pH 7.8, room temperature. The method, then:
In vitro Enzyme Assays for Determining Inhibition Constants
The activity of thrombin was measured spectrophotometrically using tosyl-Gly-Pro-Arg-p-nitroanilide acetate (Chromozym TH, Boehringer Mannheim) as a substrate. […] Each compound was dissolved in DMSO to make a 1 mM stock solution and dilutions were made thereof with assay buffer (0.1 M Tris HCl, 0.15 M NaCl, 0.1% polyethylene glycol 8000, pH 7.8). Different concentrations of inhibitor were mixed with […] of thrombin in 0.8 mL of the buffer. The mixture was incubated for 10 min at room temperature before adding 0.2 mL of the substrate to a final concentration of 20 μM. […] A graph for the reciprocal value of initial velocity to the inhibitor concentration was derived from progress curves by fitting the data using a linear regression program.

Where [4] appears, read: male, Sprague-Dawley, rat, plasma.
Setting [5] is: male, Sprague-Dawley, rat, plasma, read-out: AUC (converted).
Setting [6] is: male, Sprague-Dawley, rat, plasma, read-out: Cmax.

Structures can show the parent of a compound that is named as a salt. Where two headings read alike, the source gives them in different places.

As a reminder, the Tmax is the time at which the peak concentration occurs. By AUC is commonly meant concentration integrated over time. For orientation: Cmax means the peak of the concentration-time curve. For orientation: Ki means a dissociation constant, usually derived from enzyme kinetics or from competition with a known ligand. A high value points to a looser hold on the target.

For the compound `N=C(N)c1ccc(CNC(=O)[C@@H]2CCCN2C(=O)[C@H](NS(N)(=O)=O)C(c2ccccc2)c2ccccc2)s1` [Example 1, N-aminosulfonyl-D-diphenylalanyl-L-prolyl-[(5-amidino-2-thienyl)methyl]amide.TFA], the Tmax in data set [1] (setting [4]) is 60 min. Moreover, in data set [1] (setting [5]), the AUC was 4220 ng·h/mL. Further, the Cmax in data set [1] turned out to be 2200 ng/mL. For the same compound, in data set [2], the “Antithrombotic activity (inhibition of thrombus formation)” value worked out at 100%.

The compound `CS(=O)(=O)N[C@@H](C(=O)N1CCC[C@H]1C(=O)NCc1ccc(C(=N)N)s1)C(c1ccccc1)c1ccccc1` [Example 3, N-methylsulfonyl-D-diphenylalanyl-L-prolyl-[(5-amidino-2-thienyl)methyl]amide.TFA] registered a Ki in data set [3] of 0.004 nM. Further, in data set [2], the “Antithrombotic activity (inhibition of thrombus formation)” value stood at 100%.

Turning to `CS(=O)(=O)N[C@@H](C(=O)N1CCC[C@H]1C(=O)NCc1ccc(CN)s1)C(c1ccccc1)c1ccccc1` [Example 5, N-methylsulfonyl-D-diphenylalanyl-L-prolyl-[(5-aminomethyl-2-thienyl)methyl]amide.TFA], the Tmax in data set [1] (setting [4]) was 32 min. For the same compound, the AUC in data set [1] (setting [5]) is 4670 ng·h/mL. In addition, in data set [1] (setting [6]), the Cmax stood at 1800 ng/mL. The compound also registered a Ki in data set [3] of 5.8 nM.

As to `COC(=O)N[C@@H](C(=O)N1CCC[C@H]1C(=O)NCc1ccc(C(=N)N)s1)C(c1ccccc1)c1ccccc1` [Example 8, N-methoxycarbonyl-D-diphenylalanyl-L-prolyl-[(5-amidino-2-thienyl)methyl]amide.TFA], the Tmax in data set [1] (setting [4]) is 60 min. Moreover, the AUC in data set [1] (setting [5]) is 26900 ng·h/mL. The Cmax in data set [1] (setting [6]) was found to be 9600 ng/mL. Besides, the Ki in data set [3] is 0.014 nM.

As for `N=C(N)c1csc(CNC(=O)[C@@H]2CCCN2C(=O)[C@H](NS(N)(=O)=O)C(c2ccccc2)c2ccccc2)c1` [Example 11, N-aminosulfonyl-D-diphenylalanyl-L-prolyl-[(4-amidino-2-thienyl)methyl]amide.TFA], the time of peak concentration (Tmax) in data set [1] (setting [4]) was 45 min. In data set [1] (setting [6]), the Cmax was determined as 2100 ng/mL. Also, the AUC in data set [1] was 4230 ng·h/mL. Moreover, the Ki in data set [3] amounted to 0.022 nM. Also, the “Antithrombotic activity (inhibition of thrombus formation)” value in data set [2] worked out at 100%.

As for `COC(=O)N[C@@H](C(=O)N1CCC[C@H]1C(=O)NCc1cc(C(=N)N)cs1)C(c1ccccc1)c1ccccc1` [Example 14, N-methoxycarbonyl-D-diphenylalanyl-L-prolyl-[(4-amidino-2-thienyl)methyl]amide.TFA], the Tmax in data set [1] (setting [4]) is 80 min. Moreover, the Cmax in data set [1] (setting [6]) came to 4500 ng/mL. For the same compound, the AUC in data set [1] stood at 14200 ng·h/mL.

`N=C(N)c1cc(CNC(=O)[C@@H]2CCCN2C(=O)[C@H](NS(N)(=O)=O)C(c2ccccc2)c2ccccc2)cs1` [Example 15, N-aminosulfonyl-D-diphenylalanyl-L-prolyl-[(5-amidino-3-thienyl)methyl]amide.TFA] yielded a Ki in data set [3] of 0.056 nM. Also, in data set [2], the “Antithrombotic activity (inhibition of thrombus formation)” value was determined as 100%.

On to `COC(=O)N[C@@H](C(=O)N1CCC[C@H]1C(=O)NCc1csc(C(=N)N)c1)C(c1ccccc1)c1ccccc1` [Example 19, N-methoxycarbonyl-D-diphenylalanyl-L-prolyl-[(5-amidino-3-thienyl)methyl]amide.TFA], for which the Tmax in data set [1] (setting [4]) is 80 min. Also, in data set [1] (setting [6]), the Cmax worked out at 5200 ng/mL. Moreover, in data set [1], the AUC turned out to be 21620 ng·h/mL. The compound also came in with a Ki in data set [3] of 0.06 nM. Besides, the “Antithrombotic activity (inhibition of thrombus formation)” value in data set [2] stood at 100%.

On to `N=C(N)c1ccc(CNC(=O)[C@@H]2CCCN2C(=O)[C@H](NCC(=O)O)C(c2ccccc2)c2ccccc2)s1` [Example 29, N-carboxymethyl-D-diphenylalanyl-L-prolyl-[(5-amidino-2-thienyl)methyl]amide.2TFA], for which, in data set [1] (setting [4]), the Tmax was 15 min. Moreover, in data set [1], the AUC is 23170 ng·h/mL and the Cmax came out at 9500 ng/mL. This compound also registered a Ki in data set [3] of 0.015 nM. Besides, in data set [2], the “Antithrombotic activity (inhibition of thrombus formation)” value turned out to be 100%.

`CS(=O)(=O)N[C@@H](C(=O)N1CCC[C@H]1C(=O)NCc1ccc(C(=N)N)o1)C(c1ccccc1)c1ccccc1` [Example 34, N-methylsulfonyl-D-diphenylalanyl-L-prolyl-[(5-amidino-2-furanyl)methyl]amide.TFA] came in with a Ki in data set [3] of 1.4 nM.

In the case of `COC(=O)N[C@@H](C(=O)N1CCC[C@H]1C(=O)NCc1ccc(C(=N)N)o1)C(c1ccccc1)c1ccccc1` [Example 35, N-methoxycabonyl-D-diphenylalanyl-L-prolyl-[(5-amidino-2-furanyl)methyl]amide.TFA], the Tmax in data set [1] (setting [4]) is 45 min. Moreover, the AUC in data set [1] (setting [5]) was 16100 ng·h/mL. The Cmax in data set [1] (setting [6]) is 7100 ng/mL. This compound registered a Ki in data set [3] of 4.6 nM.

In the case of `N=C(N)c1csc(CNC(=O)[C@@H]2CCCN2C(=O)[C@H](NS(N)(=O)=O)C(c2ccccc2)c2ccccc2)n1` [Example 37, N-aminosulfonyl-D-diphenylalanyl-L-prolyl-[(4-amidino-2-thiazolyl)methyl]amide.TFA], the Ki in data set [3] worked out at 0.12 nM.

`Cn1c(CNC(=O)[C@@H]2CCCN2C(=O)[C@H](NS(C)(=O)=O)C(c2ccccc2)c2ccccc2)ccc1C(=N)N` [Example 38, N-methylsulfonyl-D-diphenylalanyl-L-prolyl-[(5-amidino-1-methyl-2-pyrrolyl)methyl]amide.TFA]: the Ki in data set [3] turned out to be 0.23 nM.

For `N=C(N)c1cc(CNC(=O)[C@@H]2CCCN2C(=O)[C@H](NCC(=O)O)C(c2ccccc2)c2ccccc2)cs1` [Example 39, N-carboxymethyl-D-diphenylalanyl-L-prolyl-[(5-amidino-3-thienyl)methyl]amide.2TFA], the Tmax in data set [1] (setting [4]) is 15 min. In data set [1], the AUC amounted to 3530 ng·h/mL and the Cmax was 4600 ng/mL.

As to `N=C(N)c1csc(CNC(=O)[C@@H]2CCCN2C(=O)[C@H](NCC(=O)O)C(c2ccccc2)c2ccccc2)n1` [Example 40, N-carboxymethyl-D-diphenylalanyl-L-prolyl-[(4-amidino-2-thiazolyl)methyl]amide.2TFA], the Tmax in data set [1] (setting [4]) was 25 min. In data set [1], this compound yielded an AUC of 18770 ng·h/mL and a Cmax of 11100 ng/mL. In data set [3], the Ki stood at 0.6 nM.

`N=C(N)c1ccc(CNC(=O)[C@@H]2CCCN2C(=O)[C@H](NCCC(=O)O)C(c2ccccc2)c2ccccc2)s1` [Example 41, N-(2-carboxyethyl)-D-diphenylalanyl-L-prolyl-[(5-amidino-2-thienyl)methyl]amide.2TFA]: in data set [1] (setting [4]), the time of peak concentration (Tmax) was 20 min. In data set [1], this compound displayed an AUC of 8380 ng·h/mL and a Cmax of 4900 ng/mL. In data set [3], this compound came in with a Ki of 0.011 nM. Besides, the “Antithrombotic activity (inhibition of thrombus formation)” value in data set [2] amounted to 100%.

In data set [3], `CC(C)(C)OC(=O)N[C@@H](C(=O)N1CCC[C@H]1C(=O)NCc1ccc(C(N)=NN)s1)C(c1ccccc1)c1ccccc1` [Example 42, N-Boc-D-Diphenylalanyl-L-prolyl-[(5-amidrazono-2-thienyl)methyl]amide.TFA] came in with a Ki of 84 nM.

With `NN=C(N)c1ccc(CNC(=O)[C@@H]2CCCN2C(=O)[C@H](N)C(c2ccccc2)c2ccccc2)s1` [Example 43, D-diphenylalanyl-L-prolyl-[(5-amidrazono-2-thienyl)methyl]amide.2TFA], the Ki in data set [3] turned out to be 9.1 nM.

On to `CS(=O)(=O)N[C@H](Cc1ccccc1)C(=O)N1CCC[C@H]1C(=O)NCc1ccc(C(N)=NN)s1` [Example 44, N-methylsulfonyl-D-phenylalanyl-L-prolyl-[(5-amidrazono-2-thienyl)methyl]amide.TFA], for which the inhibition constant (Ki) in data set [3] was found to be 395 nM.
